Holding throughout (type): functional
Assay [1] has as its system Staphylococcus aureus. The assay is described as follows: Antimicrobial activity against methicillin-resistant Staphylococcus aureus using tryptone soy broth.
For assay [2], the system named is Staphylococcus aureus. Description: Antimicrobial activity against methicillin-resistant Staphylococcus aureus using tryptone soy broth in presence of oleic acid.
Assay [3] concerns Staphylococcus aureus. Description: Antimicrobial activity against methicillin-resistant Staphylococcus aureus using tryptone soy broth in presence of bovine serum albumin.
Assay [4] relates to Staphylococcus aureus. Description: Antimicrobial activity against methicillin-resistant Staphylococcus aureus using tryptone soy broth in presence of tween-80.

SMILES strings stand for the structures. Converted amounts (≈) assume the structure as drawn.

The MIC is the lowest concentration found to suppress growth. As to `Oc1cc(Cl)ccc1Oc1ccc(Cl)cc1Cl` [TRICLOSAN], the MIC against Staphylococcus aureus [1] was 20 µg/mL (≈ 69.1 µM); in the assay on Staphylococcus aureus [2], 2000 µg/mL; in the assay on Staphylococcus aureus [3], 20 µg/mL; with Staphylococcus aureus [4], above 10000 µg/mL.

For the compound `CCC(C)SN1C(=O)[C@H](OC)[C@@H]1c1ccccc1Cl` (some centres not stated), the MIC with Staphylococcus aureus [1] was 1000 µg/mL (≈ 3340 µM); in the assay with Staphylococcus aureus [2], 2000 µg/mL; in the assay on Staphylococcus aureus [4] it was 3000 µg/mL.

These data come from ChEMBL document CHEMBL1828536, “The impact of fatty acids on the antibacterial properties of N-thiolated β-lactams” (2011).
